Reference: patent US9458515B2, “RNA including nucleoside compound, method for regulating amount of protein produced from the RNA, and nucleoside compound” (RIKEN, priority 2010, dated 2016)

Assays:
[1] = Photoisomerization reaction assessed by time-dependent changes of absorption spectra; format: physicochemical; conditions: 25 μM in methanol, dark place; for photoisomerization from cis form to trans form: visible light of 550 nm; for photoisomerization from trans form to cis form: visible light of 420 nm
Experimental: A stock solution was prepared by dissolving the 8-phenylazoguanosine obtained in (3-1) in methanol so that the 8-phenylazoguanosine presented at a concentration of 25 μM in the stock solution. In a quartz cell measuring 1 cm per side was placed 200 μl out of the stock solution thus prepared. The quartz cell was irradiated with visible light having a wavelength of 420 nm in a dark place, so that photoisomerization of the trans-8-phenylazoguanosine was assessed by measuring time-dependent changes of absorption spectra of the 8-phenylazoguanosine. In this assessment, MAX-301 manufactured by Asahi Spectra Co., Ltd. was used as a light source, and M.C.420/10 nm manufactured by the same manufacturer was used as a filter. As shown in FIG. 4 (in the upper part), along with trans to cis photoisomerization of the trans-8-phenylazoguanosine, a peak of an absorbance at 420 nm decreased, and an absorbance at 500 to 600 nm increased.
Out of the stock solution prepared in (3-2-1), 200 μl of stock solution was isomerized to the cis form as described previously, after which the resulting product was placed in a quartz cell measuring 1 cm per side. The quartz cell was irradiated with visible light having a wavelength of 550 nm in a dark place, so that photoisomerization of cis-8-phenylazoguanosine was assessed by measuring time-dependent changes of absorption spectrum of the 8-phenylazoguanosine. […] As shown in FIG. 4 (in the lower part), along with trans photoisomerization of the cis-8-phenylazoguanosine, a peak of an absorbance at 420 nm increased, and an absorbance at 500 to 600 nm decreased.
A stock solution was prepared by dissolving the trans-8-(p-toluoylazo)guanosine obtained in (4-1) in methanol so that the trans-8-(p-toluoylazo) guanosine presented at a concentration of 25 μM in the stock solution. […] The quartz cell was irradiated with visible light having a wavelength of 420 nm in a dark place, so that photoisomerization of the trans-8-(p-toluoylazo)guanosine was assessed by measuring time-dependent change of absorption spectra of the trans-8-(p-toluoylazo)guanosine. […] As shown in FIG. 6 (in the upper part), along with cis photoisomerization of the trans-8-(p-toluoylazo)guanosine, a peak of an absorbance at 420 nm decreased, and an absorbance at 500 to 600 nm increased.
Out of the stock solution prepared in (4-2-1), 200 μl of stock solution was isomerized to the cis form as described previously, after which the resulting product was placed in a quartz cell measuring 1 cm per side. The quartz cell was irradiated with visible light having a wavelength of 550 nm in a dark place, so that photoisomerization of cis-8-(p-toluoylazo) guanosine was assessed by measuring time-dependent changes of absorption spectrum of the cis-8-(p-toluoylazo)guanosine. […]

[2] = Alternate cis-trans photoisomerization, durability against reversible photoisomerization (absorbance 420 nm); format: physicochemical; conditions: 25 μM in methanol, alternate 420 nm / 550 nm, each 20 seconds, 30 cycles
Experimental: A stock solution was prepared by dissolving the trans-8-phenylazoguanosine obtained in (3-1) in methanol so that the trans-8-phenylazoguanosine presented at a concentration of 25 μM in the stock solution. In a quartz cell measuring 1 cm per side was placed 200 μl out of the stock solution. The quartz cell was alternately irradiated with visible light having wavelength of 420 nm and with visible light having a wavelength of 550 nm, each for 20 seconds, in a dark place. While this process was repeated in 30 cycles, an absorbance (420 nm) was measured. From the result of the measurement, durability of the compound against reversible photoisomerization was assessed. MAX-301 manufactured by Asahi Spectra Co., Ltd. was used as a light source, and M.C.420/10 nm and M.C.550/10 nm manufactured by the same manufacturer were used as filters.

| Compound | photoisomerization from cis form to trans form [1] | photoisomerization from trans form to cis form [1] | also measured |
| --- | --- | --- | --- |
| Cc1ccc(/N=N\c2nc3c(=O)[nH]c(N)nc3n2[C@@H]2O[C@H](CO)[C@H](O)C2O)cc1 (stereo partly drawn) | photoisomerized nearly completely to the trans form |  |  |
| Nc1nc2c(nc(/N=N/c3ccccc3)n2[C@@H]2O[C@H](CO)[C@H](O)C2O)c(=O)[nH]1 (stereo partly drawn) [trans-8-phenylazoguanosine] |  | photoisomerized nearly completely to the cis form |  |
| trans-8-phenylazoguanosine |  |  | durability against reversible photoisomerization (decomposition, side-reaction) [2]: no decomposition and side-reaction; trans to cis and cis to trans photoisomerizations on alternate irradiation [2]: alternately took place |
| Cc1ccc(/N=N/c2nc3c(=O)[nH]c(N)nc3n2[C@@H]2O[C@H](CO)[C@H](O)C2O)cc1 (stereo partly drawn) |  | photoisomerized nearly completely to the cis form |  |
| Nc1nc2c(nc(/N=N\c3ccccc3)n2[C@@H]2O[C@H](CO)[C@H](O)C2O)c(=O)[nH]1 (stereo partly drawn) [cis-8-phenylazoguanosine] | photoisomerized nearly completely to the trans form |  |  |
